In ChEMBL document CHEMBL6153051, “Synthesis, biological evaluation and validation of IMB-881 derivatives as anti-Gram-negative bacterial agents” (Bioorg Med Chem, 2025):
pKd: −log10 of the molar value. Converted amounts (≈) assume the structure as drawn. The source made the active and inactive calls. No cut-off for these calls is given here.

Experiments:
[1] = Selectivity index, ratio of MIC for antimicrobial activity against yeast AH109 expressing T/53 to MIC for inhibition of LptA /LptC (unknown origin) interaction expressed in yeast AH109
Escherichia coli [2] = experiment: Antibacterial activity against multi-drug resistant Escherichia coli 4 clinical isolate assessed as bacterial growth inhibition in presence of CAMHB medium by broth microdilution method; format: functional
[3] = Inhibition of LptA /LptC (unknown origin) interaction expressed in yeast AH109 assessed as growth inhibition incubated for 48 hrs
Acinetobacter baumannii [4] = experiment: Antibacterial activity against multi-drug resistant Acinetobacter baumannii 3 clinical isolate assessed as bacterial growth inhibition in presence of CAMHB medium by broth microdilution method; format: functional
Acinetobacter baumannii [5] = experiment: Antibacterial activity against multi-drug resistant Acinetobacter baumannii 5 clinical isolate assessed as bacterial growth inhibition in presence of CAMHB medium by broth microdilution method; format: functional
Escherichia coli [6] = experiment: Antibacterial activity against multi-drug resistant Escherichia coli 5 clinical isolate assessed as bacterial growth inhibition in presence of CAMHB medium by broth microdilution method; format: functional
Escherichia coli [7] = experiment: Antibacterial activity against multi-drug resistant Escherichia coli 3 clinical isolate assessed as bacterial growth inhibition in presence of CAMHB medium by broth microdilution method; format: functional
Acinetobacter baumannii [8] = experiment: Antibacterial activity against multi-drug resistant Acinetobacter baumannii 2 clinical isolate assessed as bacterial growth inhibition in presence of CAMHB medium by broth microdilution method; format: functional
Escherichia coli [9] = experiment: Antibacterial activity against Escherichia coli ATCC 25922 assessed as bacterial growth inhibition in presence of CAMHB medium by broth microdilution method; format: functional
Escherichia coli [10] = experiment: Antibacterial activity against multi-drug resistant Escherichia coli 2 clinical isolate assessed as bacterial growth inhibition in presence of CAMHB medium by broth microdilution method; format: functional
[11] = Binding affinity to His-tagged LptA (unknown origin) assessed as dissociation constant incubated for 60 to 120 s by BLI analysis
Acinetobacter baumannii [12] = experiment: Antibacterial activity against multi-drug resistant Acinetobacter baumannii 4 clinical isolate assessed as bacterial growth inhibition in presence of CAMHB medium by broth microdilution method; format: functional
[13] = Cytotoxicity against green monkey Vero cells incubated for 48 hrs by CCK-8 assay; format: toxicity, cell-based; settings: green monkey (Chlorocebus sabaeus)
[14] = Cytotoxicity against dog MDCK cells incubated for 48 hrs by CCK-8 assay; format: toxicity, cell-based; settings: dog (Canis lupus familiaris)
Acinetobacter baumannii [15] = experiment: Antibacterial activity against multi-drug resistant Acinetobacter baumannii 1 clinical isolate assessed as bacterial growth inhibition in presence of CAMHB medium by broth microdilution method; format: functional
Acinetobacter baumannii [16] = experiment: Antibacterial activity against Acinetobacter baumannii ATCC 19606 assessed as bacterial growth inhibition in presence of CAMHB medium by broth microdilution method; format: functional
Klebsiella pneumoniae = experiment: Antibacterial activity against Klebsiella pneumoniae ATCC […] assessed as bacterial growth inhibition in presence of CAMHB medium by broth microdilution method; format: functional
Pseudomonas aeruginosa = experiment: Antibacterial activity against Pseudomonas aeruginosa PAO1 assessed as bacterial growth inhibition in presence of CAMHB medium by broth microdilution method; format: functional
Escherichia coli [17] = experiment: Antibacterial activity against ESBL(+) producing Escherichia coli ATCC 35218 assessed as bacterial growth inhibition in presence of CAMHB medium by broth microdilution method; format: functional
Escherichia coli [18] = experiment: Antibacterial activity against multi-drug resistant Escherichia coli 1 clinical isolate assessed as bacterial growth inhibition in presence of CAMHB medium by broth microdilution method; format: functional
Saccharomyces cerevisiae = experiment: Antimicrobial activity against yeast AH109 expressing T/53 assessed as growth inhibition incubated for 48 hrs; format: functional
Escherichia coli [19] = experiment: Induction of morphological changes in Escherichia coli ATCC 25922 assessed as cell elongation in presence of LB medium measured after 1 to 3 hrs by crystal violet staining based light microscopic analysis; format: functional, organism-based; settings: time 1-3 hrs
Escherichia coli [20] = experiment: Induction of outer membrane damage in Escherichia coli ATCC 25922 assessed as increase in EtBr fluorescence intensity in presence of LB medium incubated for 12 hrs by fluorescence plate-reader analysis; format: functional, organism-based
Escherichia coli [21] = experiment: Antibacterial activity against Escherichia coli ATCC 25922 infected in Galleria mellonella assessed as increase in larvae survival rate measured upto 96 hrs; format: functional, organism-based; settings: dose 1.25-10 mg/kg
Escherichia coli [22] = experiment: Antibacterial activity against Escherichia coli ATCC 25922 infected in Galleria mellonella assessed as increase in larvae survival rate at 10 mg/kg measured after 6 days post-inoculation relative to control; format: functional; settings: ATCC 25922, 144 h, time 6 day
Escherichia coli [23] = experiment: Induction of morphological changes in Escherichia coli ATCC 25922 assessed as appearance of incomplete outer membrane in presence of LB medium incubated for 12 hrs by transmission electron microscopic analysis; format: functional, organism-based
Escherichia coli [24] = experiment: Induction of morphological changes in Escherichia coli ATCC 25922 assessed as appearance of filamentous cell in presence of LB medium measured after 1 to 3 hrs by crystal violet staining based light microscopic analysis; format: functional, organism-based; settings: time 1-3 hrs
Escherichia coli [25] = experiment: Antibacterial activity against Escherichia coli ATCC 25922 infected in Galleria mellonella assessed as increase in larvae survival rate at 1.25 mg/kg measured upto 96 hrs relative to control; format: functional

Structure (SMILES) | Selectivity Index [1] | MIC (Escherichia coli [2]) [µg/mL] | MIC [3] [µg/mL] | MIC (Acinetobacter baumannii [4]) [µg/mL] | MIC (Acinetobacter baumannii [5]) [µg/mL] | MIC (Escherichia coli [6]) [µg/mL] | MIC (Escherichia coli [7]) [µg/mL] | MIC (Acinetobacter baumannii [8]) [µg/mL] | MIC (Escherichia coli [9]) [µg/mL] | MIC (Escherichia coli [10]) [µg/mL] | pKd [11] | MIC (Acinetobacter baumannii [12]) [µg/mL] | IC50 at 48 h [13] [µg/mL] | IC50 at 48 h [14] [µg/mL] | MIC (Acinetobacter baumannii [15]) [µg/mL] | MIC (Acinetobacter baumannii [16]) [µg/mL] | MIC (Klebsiella pneumoniae) [µg/mL] | MIC (Pseudomonas aeruginosa) [µg/mL] | MIC (Escherichia coli [17]) [µg/mL] | MIC (Escherichia coli [18]) [µg/mL] | other results
Clc1cc2c(c3ncccc13)OCN(CCc1ccccc1)C2 | 2 | 50 | 12.5 (≈ 38.5 µM) | 100 | 100 | 50 | 50 | 100 | 6.25 | 50 | 8.83 | 100 | 14.3 (≈ 44.2 µM) | 7.24 (≈ 22.3 µM) | 100 | 3.12 | 100 | 50 | > 100 | 50 | MIC (Saccharomyces cerevisiae): 25 µg/mL (≈ 77 µM)
Clc1cc2c(c3ncccc13)OCN(CCCc1ccccc1)C2 | 4 | 50 | 6.25 (≈ 18.4 µM) | 12.5 | 6.25 | 50 | 50 | 12.5 | 6.25 | 50 | 7.49 | 12.5 | > 50 | 43.8 (≈ 129 µM) | 6.25 | 3.12 | 100 | 50 | 25 | 50 | Activity (Escherichia coli [19]): Active; Activity (Escherichia coli [20]): Dose-dependent-effect; Activity (Escherichia coli [21]): Dose-dependent-effect; survival at 10 mg/kg (Escherichia coli [22]): 70%; Activity (Escherichia coli [23]): Active; Activity (Escherichia coli [24]): Active; survival at 1.25 mg/kg (Escherichia coli [25]): 60%; MIC (Saccharomyces cerevisiae): 25 µg/mL (≈ 73.8 µM)
Fc1cc2c(c3ncccc13)OCN(CCc1cccc(Cl)c1)C2 |  | 50 |  | 25 | 25 | 50 | 50 | 25 | 6.25 | 50 |  | 12.5 | > 50 | 42.3 (≈ 123 µM) | 6.25 | 6.25 | 50 | 100 | 25 | 50 | 
Clc1ccc(CN2COc3c(cc(Cl)c4cccnc34)C2)cc1 | 2 | 50 | 12.5 (≈ 36.2 µM) | 12.5 | 6.25 | 50 | 50 | 6.25 | 6.25 | 50 | 7.26 | 12.5 | > 50 | 47.8 (≈ 138 µM) | 12.5 | 3.12 | 50 | 25 | 25 | 50 | Activity (Escherichia coli [19]): Active; Activity (Escherichia coli [20]): Dose-dependent-effect; Activity (Escherichia coli [21]): Dose-dependent-effect; survival at 10 mg/kg (Escherichia coli [22]): 80%; Activity (Escherichia coli [23]): Active; Activity (Escherichia coli [24]): Active; survival at 1.25 mg/kg (Escherichia coli [25]): 50%; MIC (Saccharomyces cerevisiae): 25 µg/mL (≈ 72.4 µM)
Fc1cc2c(c3ncccc13)OCN(Cc1ccc(Cl)cc1)C2 |  | 50 |  | 12.5 | 25 | 50 | 50 | 25 | 6.25 | 50 |  | 3.12 | > 50 | 35.6 (≈ 108 µM) | 12.5 | 6.25 | 100 | 50 | 25 | 50 | 
Fc1ccc(CN2COc3c(cc(Cl)c4cccnc34)C2)c(F)c1 |  | 50 |  | 50 | 50 | 50 | 50 | 25 | 6.25 | 50 |  | 25 | > 50 | 34.2 (≈ 98.6 µM) | 50 | 3.12 | 50 | 100 | > 100 | 50 | 
